Experimental data taken from PubChem BioAssay (NCI).
“And” between values parts separate entries of the source, which are not always exact repeats. Equal values may be shown once.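 Results reflect a 48-hour exposure of cells in 96-well plates to compound at five concentrations. GI50 is the concentration that inhibits growth by half. At the TGI there is no net growth.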

Legend:
Experiment in all cases: NCI anticancer screen, dose series, 48 h
KM12 colon = test system: KM12 colon
NCI-H23 lung = test system: NCI-H23 lung
RPMI-8226 leukemia = test system: RPMI-8226 leukemia
SK-MEL-2 melanoma = test system: SK-MEL-2 melanoma
RXF 393 renal = test system: RXF 393 renal
A498 renal = test system: A498 renal
T-47D breast = test system: T-47D breast
SK-MEL-28 melanoma = test system: SK-MEL-28 melanoma
HCT-15 colon = test system: HCT-15 colon
SF-539 CNS = test system: SF-539 CNS

O=C1CCC2=C3C4CCCCC4C(=O)C4CCCC(OC2C1)C34 (stereo not given) was tested, and the GI50 (KM12 colon) was 1.75 µM, the TGI (KM12 colon) was 5.46 µM and the GI50 (NCI-H23 lung) was 0.417 µM. It also gave a TGI (NCI-H23 lung) of 2.73 µM, a GI50 (RPMI-8226 leukemia) of 0.398 µM and a TGI (RPMI-8226 leukemia) of 2.65 µM. The GI50 (SK-MEL-2 melanoma) was 1.38 µM, the TGI (SK-MEL-2 melanoma) was 4.14 µM and the GI50 (RXF 393 renal) was 0.605 µM. The TGI (RXF 393 renal) was 1.79 µM, the GI50 (A498 renal) was 31.8 µM and the TGI (A498 renal) was over 63.1 µM. It also gave a GI50 (T-47D breast) of 3.58 µM, a TGI (T-47D breast) of over 100 µM and a GI50 (SK-MEL-28 melanoma) of 4.84 µM. For the same molecule, the TGI (SK-MEL-28 melanoma) was over 31.4 µM, the GI50 (HCT-15 colon) was 0.472 µM and the TGI (HCT-15 colon) was over 21.7 µM. It also gave a GI50 (SF-539 CNS) of 2.44 µM and a TGI (SF-539 CNS) of over 100 µM.
In the case of COc1cc2c(Nc3ccc(Br)cc3F)ncnc2cc1OCC1CCN(C)CC1, the GI50 (KM12 colon) was 8.94 µM and > 10 µM, the TGI (KM12 colon) was 21.4 µM and > 10 µM and the GI50 (NCI-H23 lung) was 9.57 µM and > 10 µM. The TGI (NCI-H23 lung) was 21.9 µM and > 10 µM, the GI50 (RPMI-8226 leukemia) was 3.33 µM and 6.84 µM and the TGI (RPMI-8226 leukemia) was 14 µM and > 10 µM. For the same molecule, the GI50 (SK-MEL-2 melanoma) was 5.33 µM and > 10 µM, the TGI (SK-MEL-2 melanoma) was 10.9 µM and > 10 µM and the GI50 (RXF 393 renal) was 1.44 µM and 1.29 µM. The TGI (RXF 393 renal) was 4.77 µM and 8.32 µM, the GI50 (A498 renal) was 0.712 µM and 2.03 µM and the TGI (A498 renal) was 4.36 µM and > 10 µM. For the same molecule, the GI50 (T-47D breast) was 1.66 µM and 1.32 µM, the TGI (T-47D breast) was 8.56 µM and > 10 µM and the GI50 (SK-MEL-28 melanoma) was 1.68 µM and 1.78 µM. The TGI (SK-MEL-28 melanoma) was 3.27 µM and 4.2 µM, the GI50 (HCT-15 colon) was 2.27 µM and 2.95 µM and the TGI (HCT-15 colon) was 11.5 µM and > 10 µM. For the same molecule, the GI50 (SF-539 CNS) was 2.93 µM and 7.94 µM and the TGI (SF-539 CNS) was 9.49 µM and > 10 µM.
Molecule COc1c(B(O)O)cccc1-c1nc2c(F)cc3[nH]ncc3c2c2c1CCCC2 has a GI50 (KM12 colon) of 1.41 µM, a TGI (KM12 colon) of 11.7 µM and a GI50 (NCI-H23 lung) of 1.72 µM. For the same molecule, the TGI (NCI-H23 lung) was 10.8 µM, the GI50 (RPMI-8226 leukemia) was 0.579 µM and the TGI (RPMI-8226 leukemia) was 4.59 µM. The GI50 (SK-MEL-2 melanoma) was 2.42 µM, the TGI (SK-MEL-2 melanoma) was 6.8 µM and the GI50 (RXF 393 renal) was 0.0459 µM. For the same molecule, the TGI (RXF 393 renal) was 1.67 µM, the GI50 (A498 renal) was 0.172 µM and the TGI (A498 renal) was 3.31 µM. It also gave a GI50 (T-47D breast) of 2.56 µM, a TGI (T-47D breast) of 22.2 µM and a GI50 (SK-MEL-28 melanoma) of 2.95 µM. For the same molecule, the TGI (SK-MEL-28 melanoma) was 11.3 µM, the GI50 (HCT-15 colon) was 2.24 µM and the TGI (HCT-15 colon) was 27.6 µM. For the same molecule, the GI50 (SF-539 CNS) was 0.343 µM and the TGI (SF-539 CNS) was 4.99 µM.
